pIC50: −log10 of the molar value. Read-outs that look alike come from different tables or passages of the source.
Key:
[1] = target: T1, bovine epidermal transglutaminase (Bos taurus, UniProt A6QP57); conditions: Castelhano et al., Bioorg. Chem. (1988) 16, 335-340; cited from earlier work
T1 sequence (A6QP57 1-691): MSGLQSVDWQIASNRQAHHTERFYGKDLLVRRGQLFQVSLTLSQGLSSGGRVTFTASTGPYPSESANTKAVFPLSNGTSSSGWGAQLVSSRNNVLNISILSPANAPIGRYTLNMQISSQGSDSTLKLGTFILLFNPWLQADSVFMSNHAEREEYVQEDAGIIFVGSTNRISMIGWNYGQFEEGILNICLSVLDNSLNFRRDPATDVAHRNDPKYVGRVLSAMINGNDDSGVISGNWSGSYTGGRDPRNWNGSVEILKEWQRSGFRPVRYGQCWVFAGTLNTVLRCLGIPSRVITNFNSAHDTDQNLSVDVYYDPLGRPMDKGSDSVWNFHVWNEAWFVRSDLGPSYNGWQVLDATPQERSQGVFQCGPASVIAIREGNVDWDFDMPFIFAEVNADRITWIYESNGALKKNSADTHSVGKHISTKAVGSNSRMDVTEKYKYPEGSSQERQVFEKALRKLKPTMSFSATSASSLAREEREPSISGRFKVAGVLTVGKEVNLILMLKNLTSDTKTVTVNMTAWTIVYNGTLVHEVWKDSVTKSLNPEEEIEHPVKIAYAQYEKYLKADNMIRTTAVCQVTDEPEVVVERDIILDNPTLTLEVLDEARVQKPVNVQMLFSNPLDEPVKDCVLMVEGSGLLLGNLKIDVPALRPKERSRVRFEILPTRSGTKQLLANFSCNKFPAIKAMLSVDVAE

[2] = target: T2, factor XIIIa (Homo sapiens, UniProt P00488); conditions: Proof of Principle Studies, ref [10]; cited from earlier work
T2 sequence (P00488 39-732 limits assumed): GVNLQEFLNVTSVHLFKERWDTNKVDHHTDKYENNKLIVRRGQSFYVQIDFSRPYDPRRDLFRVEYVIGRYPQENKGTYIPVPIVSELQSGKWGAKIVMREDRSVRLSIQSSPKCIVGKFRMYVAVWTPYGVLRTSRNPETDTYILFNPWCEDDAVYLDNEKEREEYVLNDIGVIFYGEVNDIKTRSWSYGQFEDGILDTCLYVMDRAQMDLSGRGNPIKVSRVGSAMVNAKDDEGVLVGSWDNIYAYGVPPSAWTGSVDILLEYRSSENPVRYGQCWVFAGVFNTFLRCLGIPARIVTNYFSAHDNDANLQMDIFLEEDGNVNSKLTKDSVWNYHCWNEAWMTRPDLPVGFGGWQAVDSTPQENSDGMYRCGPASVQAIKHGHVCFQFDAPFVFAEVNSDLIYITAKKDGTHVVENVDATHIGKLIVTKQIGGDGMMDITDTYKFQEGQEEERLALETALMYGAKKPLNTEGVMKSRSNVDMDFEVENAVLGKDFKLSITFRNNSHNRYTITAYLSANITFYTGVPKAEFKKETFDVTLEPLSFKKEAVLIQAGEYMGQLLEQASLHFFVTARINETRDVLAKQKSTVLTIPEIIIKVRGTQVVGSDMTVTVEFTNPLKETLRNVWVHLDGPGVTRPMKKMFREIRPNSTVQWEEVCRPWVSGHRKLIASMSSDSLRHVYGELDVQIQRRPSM

[3] = target: T2, factor XIIIa; test: factor XIIIa inhibition (IC50); format: biochemical; conditions: ref [14], unpublished observations
[4] = test system: human blood clots; test: in vitro assay of fibrinolysis (human blood clot lysis); conditions: 250 μM compound, human whole blood clot, TPA; for fibrinogen (FITC-fibrinogen) release from clots: FIG. 2; for red blood cell release from the blood clots: absorbance 750 nm, FIG. 1
Method: A number of TGase inhibitors show promise for exploitation in therapeutic areas where TGase has been implicated. […] Compounds 1 and 3 were evaluated for stimulation of thrombolysis (human blood clot lysis) and associated release of embedded staphylococci using an in vitro assay of fibrinolysis as shown below.
Fresh human venous blood (1 ml) was collected by venepuncture in 13 mM citrate. After addition of Staphylococcus aureus NCTC 8325 (to 10^6 cfu/ml), tissue plasminogen activator (TPA, to 100 ng/ml) and FITC-labelled fibrinogen (to 10 μg/ml) aqueous solutions of compounds 1 or 3 (to 250 μM) or water (control), the blood was clotted by addition of CaCl2 (to 20 mM) and allowed to cross-link for 1 hr at 37° C. Blood clots were washed three times each in 1 ml sterile phosphate buffered saline (PBS), resuspended in 1 ml PBS containing 10 μg/ml TPA and incubated with shaking at 37° C. Samples of the clot suspending fluid were withdrawn at intervals and measured for red blood cell content (absorbance 750 nm), fibrinolysis (fluorescence) and release of Staphylococcus aureus (by viable counting).

[5] = test system: fibrin clot; test: stabilized fibrin clot formation; format: biochemical
[6] = release of inhibitor from coated polyurethane catheter; format: physicochemical; conditions: polylactide-glycolide coating, phosphate buffered saline 37° C., over a 336 hour period, FIG. 4
Method: Catheter sections (2 cm, polyurethane Venflon, BD […]) were immersed in a solution of compound 3 (10 mg/ml), dissolved in polylactide-glycolide in dichloromethane (256 mg/ml) and allowed to dry in air. Individual sections were placed in 2 ml of phosphate buffered saline at 37° C. with constant shaking. Release of compound 3 was measured by assaying the phosphate buffered saline over a 336 hour period.

[7] = test system: femoral artery thrombosis; conditions: ref [11]; cited from earlier work
[8] = test system: thrombus; conditions: ref [11]; cited from earlier work

Compound	inhibition of bovine epidermal transglutaminase [1]	pIC50 [2]	pIC50 [3]	fibrinogen (FITC-fibrinogen) release from clots [4]	red blood cell release from the blood clots [4]	inhibition of stabilized fibrin clot formation [5]	release of inhibitor from a coated catheter [6]	thrombolysis in a rabbit model of femoral artery thrombosis [7]	thrombolysis in vitro [8]
O=C(N[C@@H](Cc1ccccc1)C(=O)NCC1CC(Br)=NO1)OCc1ccccc1 (stereo partly drawn) [(S)-1-[(3-Bromo-4,5-dihydro-isoxazol-5-ylmethyl)-carbamoyl]-2-phenyl-ethyl}-carbamic acid benzyl ester]	inhibitor	–	–	–	–	–	–	–	–
C[S+](C)CC(=O)CC[C@H](NC(=O)[C@H](Cc1ccccc1)NC(=O)OCc1ccccc1)C(=O)O [Compound 1, N-benzyloxycarbonyl-L-phenylalanyl-6-dimethylsulfonium-5-oxo-L-norleucine]	–	4.52	4.30	greatly increased	increased	inhibit stabilized fibrin clot formation	–	–	–
C[S+](C)CC(=O)CC[C@H](NC(=O)[C@@H]1CCCN1C(=O)OCc1ccccc1)C(=O)O [Compound 2, N-Benzyloxycarbonyl-L-prolinyl-6-dimethylsulfonium-5-oxo-L-norleucine]	–	–	5.00	–	–	–	–	–	–
CC(=O)CSc1n(C)cc[n+]1C [Compound 3]	–	4.30	–	greatly increased	increased	–	prolonged release	enhanced thrombolysis	enhanced thrombolysis

From patent US20080299170A1, “Medical Devices and Coatings Therefor” (Aston University, priority 2005, published 2008)
